These are literature values, as cited in paper PMC6625762 (Bioorganic & medicinal chemistry letters, 2019).

What is called Kd is the equilibrium constant for the complex coming apart.

“NMeAla-Tle-(4S)-4-phenoxy-Pro-(R)-tetrahydronaphth-1-yl-amide”: the dissociation constant Kd is 5 nM.
